Test results as given in paper PMC5352051, “Identification of a novel Polo-like kinase 1 inhibitor that specifically blocks the functions of Polo-Box domain” (Oncotarget, 2016).

How the values were obtained:
Plk1 PBD = molecular target: T1, Plk1 PBD (Homo sapiens, UniProt P53350); assay: Fluorescence polarization assay, Plk1 PBD / FITC-Poloboxtide; format: binding
T1 construct: (326-603 aa), Plk2 (355-685 aa), and Plk3 (335-646 aa); 6xHis (N); 6xHis (C); made in house; host or cells: E. coli Rosetta BL21(DE3)
Procedure: FP assay was performed as follow. […] We calculated the percentage of inhibition for each sample as follows: Inhibition(%)=Negative−Sample/Negative−Positive×100%
We plotted the inhibition values and determined IC50 using GraphPad Prism5.0. Together with the FITC-labeled peptides used for Plk1 PBD as mentioned above, the following peptides were used for specificity assays, FITC-GPMQTSpTPKNG-OH (Plk2 PBD), FITC-GPLATSpTPKNG-OH (Plk3 PBD).

Plk2 PBD = molecular target: T2, Plk2 PBD (Homo sapiens, UniProt Q9NYY3); assay: Fluorescence polarization assay, Plk2 PBD / FITC-labeled phosphopeptide; format: binding
T2 construct: (326-603 aa), Plk2 (355-685 aa), and Plk3 (335-646 aa); GST (N); made in house; host or cells: E. coli Rosetta BL21(DE3)
T2 sequence (Q9NYY3 355-685): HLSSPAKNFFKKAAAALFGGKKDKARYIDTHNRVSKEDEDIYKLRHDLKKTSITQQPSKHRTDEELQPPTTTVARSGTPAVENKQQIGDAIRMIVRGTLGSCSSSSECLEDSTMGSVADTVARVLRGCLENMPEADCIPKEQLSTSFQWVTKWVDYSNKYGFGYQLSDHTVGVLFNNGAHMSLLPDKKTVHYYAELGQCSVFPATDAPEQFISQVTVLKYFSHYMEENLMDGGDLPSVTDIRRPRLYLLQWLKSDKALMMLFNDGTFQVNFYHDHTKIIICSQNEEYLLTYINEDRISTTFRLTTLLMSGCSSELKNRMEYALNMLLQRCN
Procedure: FP assay was performed as follow. Briefly, 30 μL Plk1 PBD proteins (400 nM) were incubated with 0.3 μL tested compounds (1 mg/mL) with shaking for 1 hr at room temperature (RT) prior to addition of 30 μL FITC-Poloboxtide (FITC-GPMQSpTPLNG-OH; λex/λem: 485/535 nm; 60 nM) in FP buffer (50 mM Tris-HCl, 10 mM NaCl, 1 mM EDTA pH8.0). Three wells containing 30 μL FITC-Poloboxtide (60 nM) and 30 μL Plk1 PBD (400 nM) were used as negative control (0% inhibition); three wells containing 60 μL FITC-Poloboxtide (30 nM) only were used as positive control (100% inhibition). Fluorescence polarization was analyzed after incubation of FITC-Poloboxtide for 15 min in a 384-well black opaque microplate (Cat# 6007270, PerkinElmer) using Envision Multilabel Reader (PerkinElmer) at 25°C. We calculated the percentage of inhibition for each sample as follows: Inhibition(%)=Negative−Sample/Negative−Positive×100%
We plotted the inhibition values and determined IC50 using GraphPad Prism5.0. Together with the FITC-labeled peptides used for Plk1 PBD as mentioned above, the following peptides were used for specificity assays, FITC-GPMQTSpTPKNG-OH (Plk2 PBD), FITC-GPLATSpTPKNG-OH (Plk3 PBD). As described above for the FP assay, proteins were used at the following final concentrations: Plk1 PBD, 200 nM; Plk2 PBD, 450 nM; Plk3 PBD, 600 nM. All FITC-labeled peptides were chemically synthesized (China Peptides Co., Ltd., Shanghai) and further verified by mass spectrometry, and the purity is more than 95.0%.

[1] = Body weight of xenografted nude mice (tolerability); format: in vivo; settings: intratumoral injection 50 and 100 mg/kg, 5 weeks, vs control
Procedure: Female athymic nude mice were injected with 2.0 × 10^7 A549 lung-carcinoma cells subcutaneously. After 14~20 days, when the tumor volumes reached 100~150 mm^3, animals were divided into treatment (T521; 50, 100 mg/kg) and control (DMSO) groups with ten mice in each group. T521 (0.2 g/mL) dissolved in DMSO was administered alone and mice were treated with T521 by intratumoral injection at the different injection points according to indicated dose on Wednesdays and Fridays for 5 weeks. Tumor volumes were determined with a caliper on Monday and Thursday during drug administration cycle. Tumor volume (mm^3) was calculated using the following equation: V=L×S^2×π/6, where L is the length and S is width of the tumor. The body weight of these mice was determined as an indicator of tolerability on the same days. Student's t-tests were performed for statistical evaluation among treatment and control groups. All mice were properly treated in accordance with the guidelines of the local animal committee.

Plk1 = molecular target: T3, Plk1 (Homo sapiens, UniProt P53350); assay: HPLC-Q-TOF mass spectrometry of intact protein after incubation; format: binding; settings: Plk1 10 μM, T521 500 μM, 50 mM Tris-HCl pH8.0, RT, 30 min
T3 construct: purchased Sino Biological Inc
Procedure: (§1) The covalent binding mode was speculated from the interactions between Poloxin, TQ and Plk1 PBD [23]. […] To test this possibility, we incubated purified Plk1 (10 μM) with T521 (500 μM) in 50 mM Tris-HCl (pH8.0) at room temperature for 30 min. […] In contrast, no addition of T521 to Plk2 or Plk3 was detected after their incubation with T521 (Supplementary Figure S1C, S1D, S1E and S1F).
(§2) Supplementary Figure S1: Analysis of binding mode between T521 and Plk1-3 using HPLC-Q-TOF MS. Plk1-3 (10 μM) proteins were incubated with or without T521 (500 μM) in 50 mM Tris-HCl (pH8.0) at RT for 30 min. The desalted samples (5 μg) were eluted with an HPLC gradient program into a Q-TOF mass spectrometer (Agilent, USA). Mass spectra were obtained after deconvolution.
(§3) A, C, E. The analysis of Plk1-3 proteins after incubation in the absence of T521. B, D, F. The analysis of Plk1-3 proteins after incubation […]
(§4) (also on this page, place not known: www.impactjournals.com/oncotarget/ Oncotarget, Materials 2016 Supplementary) […]

Plk2 = molecular target: T4, Plk2 (Homo sapiens, UniProt Q9NYY3); assay: as above; format: binding; settings: Plk2 10 μM, T521 500 μM, RT, 30 min
T4 construct: purchased Sino Biological Inc
Procedure: as §1, §2, §3, §4

Plk3 = molecular target: T5, Plk3 (Homo sapiens, UniProt Q9H4B4); assay: as above; format: binding; settings: Plk3 10 μM, T521 500 μM, RT, 30 min
T5 construct: purchased Sino Biological Inc
Procedure: as §1, §2, §3, §4

T1 sequence (P53350 326-603): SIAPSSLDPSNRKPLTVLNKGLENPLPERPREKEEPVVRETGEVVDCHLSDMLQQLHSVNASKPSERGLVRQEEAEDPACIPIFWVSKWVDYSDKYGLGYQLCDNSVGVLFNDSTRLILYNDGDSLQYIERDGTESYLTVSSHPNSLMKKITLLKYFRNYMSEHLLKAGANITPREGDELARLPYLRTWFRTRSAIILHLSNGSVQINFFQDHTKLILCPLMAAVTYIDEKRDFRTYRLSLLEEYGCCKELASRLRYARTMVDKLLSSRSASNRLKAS
T5 sequence (Q9H4B4 whole entry): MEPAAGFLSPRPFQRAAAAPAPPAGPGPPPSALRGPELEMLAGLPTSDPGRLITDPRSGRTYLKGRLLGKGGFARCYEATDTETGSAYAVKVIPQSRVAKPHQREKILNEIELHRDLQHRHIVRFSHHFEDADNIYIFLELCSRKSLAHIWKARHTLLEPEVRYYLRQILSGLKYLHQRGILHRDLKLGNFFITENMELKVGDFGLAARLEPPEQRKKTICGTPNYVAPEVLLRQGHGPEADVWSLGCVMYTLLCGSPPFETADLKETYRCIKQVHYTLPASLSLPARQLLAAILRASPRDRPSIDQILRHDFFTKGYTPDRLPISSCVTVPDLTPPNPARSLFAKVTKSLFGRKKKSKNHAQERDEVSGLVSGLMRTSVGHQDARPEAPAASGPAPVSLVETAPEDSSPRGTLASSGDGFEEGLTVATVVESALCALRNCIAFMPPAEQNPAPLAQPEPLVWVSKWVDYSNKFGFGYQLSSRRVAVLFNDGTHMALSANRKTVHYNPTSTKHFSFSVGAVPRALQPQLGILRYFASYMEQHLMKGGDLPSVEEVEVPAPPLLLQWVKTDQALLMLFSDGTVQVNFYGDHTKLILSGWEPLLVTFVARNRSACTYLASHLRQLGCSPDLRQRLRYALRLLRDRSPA
T4 sequence (Q9NYY3 whole entry): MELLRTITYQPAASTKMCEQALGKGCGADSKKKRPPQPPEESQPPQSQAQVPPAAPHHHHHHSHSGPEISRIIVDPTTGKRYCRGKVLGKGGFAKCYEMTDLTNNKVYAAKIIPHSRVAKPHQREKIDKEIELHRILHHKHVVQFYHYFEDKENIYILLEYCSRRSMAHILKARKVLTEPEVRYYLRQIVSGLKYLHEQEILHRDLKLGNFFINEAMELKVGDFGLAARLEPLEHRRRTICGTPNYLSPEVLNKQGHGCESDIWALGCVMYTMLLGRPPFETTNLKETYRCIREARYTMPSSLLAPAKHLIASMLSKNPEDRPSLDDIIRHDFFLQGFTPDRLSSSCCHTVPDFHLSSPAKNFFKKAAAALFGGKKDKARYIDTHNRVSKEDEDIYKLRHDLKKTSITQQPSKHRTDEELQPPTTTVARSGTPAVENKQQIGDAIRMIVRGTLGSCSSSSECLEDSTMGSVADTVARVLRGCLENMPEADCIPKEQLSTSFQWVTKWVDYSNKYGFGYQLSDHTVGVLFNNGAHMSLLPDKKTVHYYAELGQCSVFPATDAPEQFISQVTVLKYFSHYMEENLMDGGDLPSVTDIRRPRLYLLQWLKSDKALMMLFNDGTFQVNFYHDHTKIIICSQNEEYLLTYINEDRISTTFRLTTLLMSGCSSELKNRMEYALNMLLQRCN
T3 sequence (P53350 whole entry): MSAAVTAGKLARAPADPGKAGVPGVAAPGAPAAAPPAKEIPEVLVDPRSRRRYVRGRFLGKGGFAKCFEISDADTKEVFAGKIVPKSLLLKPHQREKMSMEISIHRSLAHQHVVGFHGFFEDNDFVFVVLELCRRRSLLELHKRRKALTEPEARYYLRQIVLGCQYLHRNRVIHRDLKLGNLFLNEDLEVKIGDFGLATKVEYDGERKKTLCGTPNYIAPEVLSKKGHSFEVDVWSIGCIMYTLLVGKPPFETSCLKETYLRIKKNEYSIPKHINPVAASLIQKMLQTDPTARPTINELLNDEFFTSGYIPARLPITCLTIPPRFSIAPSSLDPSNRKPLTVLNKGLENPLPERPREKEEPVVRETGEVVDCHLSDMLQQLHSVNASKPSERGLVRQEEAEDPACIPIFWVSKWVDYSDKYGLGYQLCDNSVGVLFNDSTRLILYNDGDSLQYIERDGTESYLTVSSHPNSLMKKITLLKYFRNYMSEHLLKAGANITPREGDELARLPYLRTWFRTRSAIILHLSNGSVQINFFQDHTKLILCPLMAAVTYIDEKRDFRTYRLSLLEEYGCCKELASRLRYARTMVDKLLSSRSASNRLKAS

CCS(=O)(=O)c1oc(-c2ccc(F)cc2)nc1S(=O)(=O)c1ccccc1 [T521, 5-(ethylsulfonyl)-2-(4-fluorophenyl)-4-(phenylsulfonyl) oxazole]
temperature dependence of inhibition of Plk1 PBD / FITC-Poloboxtide interaction (Plk1 PBD; 1 hr incubation at indicated temperatures): more efficient at higher temperatures | IC50 (Plk1 PBD; Plk1 PBD, FP assay, 1 hr preincubation at RT, read-out: Apparent IC50): 1220 ± 130 nM | time dependence of inhibition of Plk1 PBD / FITC-Poloboxtide interaction (Plk1 PBD; incubation for indicated times at RT): inhibition increased over time | IC50 (Plk2 PBD; FP assay, 1 hr preincubation at RT, read-out: Apparent IC50): > 500000 nM | inhibition of binding of PBD to FITC-labeled phosphopeptide (Plk2 PBD; concentration as high as 500 μM): little inhibition | tolerability by body weight [1]: well tolerated | increase of intact mass of protein (covalent addition) (Plk1): 907.05 Da | covalent addition to protein (Plk2): no addition | covalent addition to protein (Plk3): no addition
